Experimental data as given in patent US20250057791A1, “PROTECTION AGAINST ARTHROPOD PARASITES WITH PURINERGIC RECEPTOR (OPR) ANTAGONISTS” (priority 2021, published 2025).

How the values were obtained:
A. stephensi = assay: Membrane feeding assay, A. stephensi; assay type: in vivo, Anopheles stephensi; details: for effect on feeding on solution containing ATP, in words: doses as in Table 8
Protocol: Experiments with A. gambiae and A. stephensi were made in a climate chamber at 28° C. and 80% RH during the last 6 hours of scotophase. As a sugar meal can interfere with the blood meal by reducing the number of females that feed, the sucrose solution supplied in rearing cages to mosquitoes employed for feeding experiments was reduced to 5%. […] The 5% sucrose solution was presented to mosquitoes from emergence on four 1 cm diam. cotton dental rolls (Hartmann A G, Neuhausen, Switzerland) inserted in 10 ml upturned glass vials placed in holes at each corner of the rearing cage ceiling. Cotton rolls were turned daily in vials and renewed every two days. Mosquitoes were not fed blood and were deprived of sucrose 17 to 20 hours before experiments. Thirty min before a feeding experiment, between 10-25, 6-day-old females that responded to activation by human breath were removed with a mouth aspirator from the rearing cage wall and placed in polystyrol cylinders with the floor cut out (10 cm dm×15 cm high; Semadeni, Ostermundigen, Switzerland) that served as feeding cages. Each cage was covered with mosquito netting at one end and a soft polyurethane lid at the other.
Mosquitoes were fed for 30 min using a feeding system (Hemotek®, Hemotek Ltd, Blackburn, UK) consisting of 3.5 ml stainless steel reservoirs 37 mm in diameter covered with a 60-90 μm thick silicone-impregnated membrane (Kröber and Guerin, 2007 in “Feeding assays for hard ticks”, Trends in parasitology 23, 445-449; doi 10.1016/j.pt.2007.07.010). Feeding reservoirs reached a temperature of 37° C. within 10 min and were placed on the netting of feeding cages. Mosquitoes were activated using a 200 ms pulse of pure CO2 (volume 6.25 ml) from a pressurised cylinder (Carbagas, Switzerland) using a solenoid valve that caused the CO2 level in the feeding cage to rise to at least 1,500 ppm. Between 3 and 4 sets of 10 feeding cages held in a custom-built Ertacetal® POM frame were tested per day, depending of the number of female mosquitoes available from the colony.
All compounds were tested in a mosquito feeding solution (FS) consisting of 25 mM dextrose, 25 mM NaCl buffered with 8.93 mM NaHCO3 adjusted to pH 7.4. Feeding responses of A. gambiae and A. stephensi to ATP as a function of dose were tested with between 7 to 10 feeding cages per dose. Each feeding experiment with an antagonist systematically included a treatment containing the FS as negative control along with a treatment containing the FS […] These positive and negative controls permitted to monitor any effect of experimental day on feeding responses as a function of dose for antagonists that were recorded over several days. […] Four to 10 cages each with 10 to 29 mosquitoes were tested per antagonist dose. […] The number of feeding cages used to test other compounds and their mixtures as feeding stimulants or as feeding inhibitors is listed on Table 6. The percentage of fed mosquitoes was estimated by visual inspection of abdominal distention that is indicative of engorgement.
Pairwise comparisons of A. gambiae electrophysiological (EP) responses to ATP and adenosine alone and combined with a given dose of PR antagonist, EP responses to ATP alone and combined with a given dose of a metal modulator, and EP responses to ATP prior to and after exposure of a sensillum to a given dose of a PR antagonist were made with a one-tailed Wilcoxon signed-rank test for data showing a non-normal distribution, with a paired Student's t-test for normally distributed data showing homogeneous variance and with a Welch's t-test for normally distributed data showing non-homogeneous variance. […]

Ornithodorus moubata = assay: Silicone membrane feeding of N3, N4 nymphs, Ornithodorus moubata; assay type: in vivo; details: for effect on feeding, compound in solution containing ATP, in words: doses as in Table 9
Protocol: O. moubata nymphs were fed for 25 min through a membrane (50-75 μm thick) as for hard ticks in glass feeding unit on TFS containing 1000 μM ATP as positive control in each feeding experiment. PR antagonists were added to the TFS as for hard ticks. One compound, TMP was applied onto the membrane in aqueous solution (8 μg TMP in 70 μl) in small drops using a micropipette. Individual nymphs were marked on the dorsum with nail varnish in distinguishable colours and weighed before and after the experiment.
Uptake of TFS containing PR antagonists, converted to mg/h for hard ticks and weight gains in mg/25 min for soft ticks, was compared to TFS uptake in the corresponding positive controls. […] For tsetse and horn flies the percentage flies that fed per antagonist treatment served as the criterion for inhibition of feeding. As horn fly sexes emerged within 24 h, both sexes were assumed to show the same degree of appetence. In tsetse, males emerged first so a gender-related appetence could not be excluded. No sex-related feeding differences in feeding were found for testse (GLM, P>0.05) so data for the sexes were pooled. Comparisons of percentage fed flies were made using a Bayesian GLM—the most appropriate model considering the zero-inflated distributions shown by the data sets. […] P-values were corrected using Holm's FWEC in multiple comparisons of data for each tick and fly species.

[1] = TFS + 100 μM, N3, N4, silicone membrane

## O=C(O)c1cc(C(=O)O)c(C(=O)N(Cc2cccc(Oc3ccccc3)c2)[C@H]2CCCc3ccccc32)cc1C(=O)O [A-317491, 5-[(3-phenoxyphenyl)methyl-[(1S)-1,2,3,4-tetrahydronaphthalen-1-yl]carbamoyl]benzene-1,2,4-tricarboxylic acid]
A. stephensi; 0.08 μM, feeding solution with 160 μM ATP
  % Fed females (mean ± s.e.m.): 29.68 ± 7.14%
A. stephensi; Anopheles stephensi, 0.08 μM, Abbott's formula
  inhibition at 0.08 µM: 59.3%
A. stephensi
  effect on feeding on solution containing ATP, in words: inhibited feeding
Ornithodorus moubata; TFS + 1 μM, N3, N4, silicone membrane
  weight gain, Median (mg): 0.1 mg/25 min
Ornithodorus moubata; [1]
  weight gain, Median (mg): 0 mg/25 min
Ornithodorus moubata
  effect on feeding, compound in solution containing ATP, in words: inhibited feeding

## Nc1ncnc2c1ncn2[C@@H]1O[C@H](COP(=O)(O)OP(=O)(O)OP(=O)(O)O)[C@@H](O)[C@H]1O [ATP, Adenosine 5′-triphosphate]
A. stephensi; ATP 160 μM, positive control
  % Fed females (mean ± s.e.m.): 72.96 ± 5.9%
A. stephensi; feeding as a function of dose
  ED95, feeding stimulant: 160 µM

## Cc1nc(C)c(C)nc1C [TMP, 2,3,5,6-tetramethylpyrazine]
A. stephensi; 0.8 μM, feeding solution with 160 μM ATP
  % Fed females (mean ± s.e.m.): 26.67 ± 2.98%
A. stephensi; Anopheles stephensi, 0.8 μM, Abbott's formula
  inhibition at 0.8 µM: 63.5%
A. stephensi
  effect on feeding on solution containing ATP, in words: inhibited feeding
Ornithodorus moubata; 8 μg/cm^2 on membrane over TFS, N3, N4
  weight gain, Median (mg): 0 mg/25 min
Ornithodorus moubata; [1]
  weight gain, Median (mg): 0.1 mg/25 min
Ornithodorus moubata; dose as in Table 9
  effect on feeding, compound applied onto the feeding membrane, in words: significantly inhibited feeding
Ornithodorus moubata
  effect on feeding, compound in solution containing ATP, in words: failed to inhibit feeding

## Cc1ccc(C(=O)Nc2ccc(S(=O)(=O)O)c3cc(S(=O)(=O)O)cc(S(=O)(=O)O)c23)cc1NC(=O)c1cccc(NC(=O)Nc2cccc(C(=O)Nc3cc(C(=O)Nc4ccc(S(=O)(=O)O)c5cc(S(=O)(=O)O)cc(S(=O)(=O)O)c45)ccc3C)c2)c1 [Suramin]
A. stephensi; 80 μM, feeding solution with 160 μM ATP
  % Fed females (mean ± s.e.m.): 30.04 ± 7.75%
A. stephensi; Anopheles stephensi, 80 μM, Abbott's formula
  inhibition at 80 µM: 58.8%
Ornithodorus moubata; TFS + 500 μM, N3, N4, silicone membrane
  weight gain, Median (mg): 0 mg/25 min
